Patent publication US10780090B2, “Heteroaryl compounds useful as inhibitors of SUMO activating enzyme” (Millennium Pharmaceuticals, Inc., priority 2014, dated 2020)
Read-outs that look alike come from different tables or passages of the source.

Biological target: recombinant human SAE enzyme (Homo sapiens (Human), UniProt Q9UBT2)
Test: SAE HTRF enzyme assay
Type: biochemical
Details: for inhibition at 0.111 µM: read-out: Percent Inhibition
How it was run: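 Human SAE (0.11 nM) with 0.5 μM ATP, 0.125 μM Sumo-Flag and 0.01 μM Ubc9-GST in HEPES pH 7.5, 5 mM MgCl2, 250 μM GSH; 105 min at 24 °C. Stopped with EDTA; HTRF read after 2 h with Eu-anti-Flag and APC-anti-GST. Percent inhibition or IC50 reported.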

[1] = SAE inhibition at compound concentration 0.111 μM
[2] = SAE inhibition, class symbols, legend in nM

Sequence of recombinant human SAE enzyme (Q9UBT2 whole entry): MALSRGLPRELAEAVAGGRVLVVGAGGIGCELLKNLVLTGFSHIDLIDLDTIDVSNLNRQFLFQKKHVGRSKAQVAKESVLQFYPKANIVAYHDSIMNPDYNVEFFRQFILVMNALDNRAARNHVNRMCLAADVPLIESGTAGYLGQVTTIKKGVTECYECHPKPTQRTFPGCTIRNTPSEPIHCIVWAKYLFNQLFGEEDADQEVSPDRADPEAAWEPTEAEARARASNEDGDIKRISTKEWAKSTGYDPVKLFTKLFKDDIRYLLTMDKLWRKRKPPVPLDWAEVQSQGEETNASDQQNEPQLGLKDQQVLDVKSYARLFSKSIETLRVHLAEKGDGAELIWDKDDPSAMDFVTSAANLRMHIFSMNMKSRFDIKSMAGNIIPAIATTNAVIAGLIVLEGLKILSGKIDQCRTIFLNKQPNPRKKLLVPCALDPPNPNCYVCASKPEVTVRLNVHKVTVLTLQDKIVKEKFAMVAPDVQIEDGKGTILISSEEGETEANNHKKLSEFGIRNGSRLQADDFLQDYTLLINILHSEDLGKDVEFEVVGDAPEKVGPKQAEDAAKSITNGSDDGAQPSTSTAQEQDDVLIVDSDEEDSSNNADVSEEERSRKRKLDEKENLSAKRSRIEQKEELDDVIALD
Sequence of recombinant human SAE enzyme (Q9UBE0 whole entry partner): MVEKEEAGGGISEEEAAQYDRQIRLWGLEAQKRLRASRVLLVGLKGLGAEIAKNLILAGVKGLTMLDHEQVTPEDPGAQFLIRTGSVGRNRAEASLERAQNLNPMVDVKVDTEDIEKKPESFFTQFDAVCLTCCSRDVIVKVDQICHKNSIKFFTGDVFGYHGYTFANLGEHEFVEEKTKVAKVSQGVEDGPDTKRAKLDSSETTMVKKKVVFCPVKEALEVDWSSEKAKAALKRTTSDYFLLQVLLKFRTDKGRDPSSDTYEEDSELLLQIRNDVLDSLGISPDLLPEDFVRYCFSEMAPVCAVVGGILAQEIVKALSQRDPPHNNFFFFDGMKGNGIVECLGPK

SMILES	Percent Inhibition (Concentration 0.111 μM)	IC50 (class symbols A/B/C) [nM]	Percent Inhibition [1] [%]	IC50 [2] [nM]	inhibition at 0.111 µM (Concentration 0.111 μM) [%]	other results
Cc1sc(C(=O)c2cncnc2N[C@@H]2C[C@H](COS(N)(=O)=O)[C@@H](O)C2)cc1[C@H](C)c1cccc(Cl)c1 (single isomer, unassigned) [I-135a, [(1R,2S,4R)-4-{[5-({4-[(1R)-1-(3-chlorophenyl)ethyl]-5-methyl-2-thienyl}carbonyl)pyrimidin-4-yl]amino}-2-hydroxycyclopentyl]methyl sulfamate or [(1R,2S,4R)-4-{[5-({4-[(1S)-1-(3-chlorophenyl)ethyl]-5-methyl-2-thienyl}carbonyl)pyrimidin-4-yl]amino}-2-hydroxycyclopentyl]methyl sulfamate]	82	10 to 100				
Cc1nc2c(s1)CCO[C@H]2c1cc(C(=O)c2cncnc2N[C@@H]2C[C@H](COS(N)(=O)=O)[C@@H](O)C2)sc1C (single isomer, unassigned) [I-287b, [(1R,2S,4R)-2-hydroxy-4-{[5-({5-methyl-4-[(4S)-2-methyl-6,7-dihydro-4H-pyrano[3,4-d][1,3]thiazol-4-yl]-2-thienyl}carbonyl)pyrimidin-4-yl]amino}cyclopentyl]methyl sulfamate or [(1R,2S,4R)-2-hydroxy-4-{[5-({5-methyl-4-[(4R)-2-methyl-6,7-dihydro-4H-pyrano[3,4-d][1,3]thiazol-4-yl]-2-thienyl}carbonyl)pyrimidin-4-yl]amino}cyclopentyl]methyl sulfamate]			98	< 10		
Cc1sc(C(=O)c2cncnc2N[C@@H]2C[C@H](COS(N)(=O)=O)[C@@H](O)[C@H]2O)cc1[C@@H]1NCCc2ccc(Br)cc21 (single isomer, unassigned) [I-247a, [(1R,2R,3S,4R)-4-{[5-({4-[(1R)-7-bromo-1,2,3,4-tetrahydroisoquinolin-1-yl]-5-methyl-2-thienyl}carbonyl)pyrimidin-4-yl]amino}-2,3-dihydroxycyclopentyl]methyl sulfamate or [(1R,2R,3S,4R)-4-{[5-({4-[(1S)-7-bromo-1,2,3,4-tetrahydroisoquinolin-1-yl]-5-methyl-2-thienyl}carbonyl)pyrimidin-4-yl]amino}-2,3-dihydroxycyclopentyl]methyl sulfamate]	100	< 10				
NS(=O)(=O)OC[C@H]1C[C@@H](Nc2ncncc2C(=O)c2cc([C@@]3(C4CC4)CCCO3)cs2)C[C@@H]1O (mixture of isomers) [I-238, [(1R,2S,4R)-4-{[5-({4-[(2S)-2-cyclopropyltetrahydrofuran-2-yl]-2-thienyl}carbonyl)pyrimidin-4-yl]amino}-2-hydroxycyclopentyl]methyl sulfamate and [(1R,2S,4R)-4-{[5-({4-[(2R)-2-cyclopropyltetrahydrofuran-2-yl]-2-thienyl}carbonyl)pyrimidin-4-yl]amino}-2-hydroxycyclopentyl]methyl sulfamate]	25	100 to 1000				
CN1Cc2ccc(Cl)cc2[C@@H]1c1csc(C(=O)c2cncnc2N[C@@H]2C[C@H](COS(N)(=O)=O)[C@@H](O)C2)c1 (mixture of isomers) [I-265, [(1R,2S,4R)-4-{[5-({4-[(1R)-6-chloro-2-methyl-2,3-dihydro-1H-isoindol-1-yl]-2-thienyl}carbonyl)pyrimidin-4-yl]amino}-2-hydroxycyclopentyl]methyl sulfamate and [(1R,2S,4R)-4-{[5-({4-[(1S)-6-chloro-2-methyl-2,3-dihydro-1H-isoindol-1-yl]-2-thienyl}carbonyl)pyrimidin-4-yl]amino}-2-hydroxycyclopentyl]methyl sulfamate]	97	< 10				
NS(=O)(=O)OC[C@H]1C[C@@H](Nc2ncncc2C(=O)c2cc(CN3CCc4ccc(Cl)cc43)cs2)C[C@@H]1O [I-83, [(1R,2S,4R)-4-{[5-({4-[(6-chloro-2,3-dihydro-1H-indol-1-yl)methyl]-2-thienyl}carbonyl)pyrimidin-4-yl]amino}-2-hydroxycyclopentyl]methyl sulfamate]		< 10			98	
NS(=O)(=O)OC[C@H]1C[C@@H](Nc2ncncc2C(=O)c2cc(Cn3ccc4ccc(C(F)(F)F)cc43)cs2)C[C@@H]1O [I-184, [(1R,2S,4R)-2-hydroxy-4-({5-[(4-{[6-(trifluoromethyl)-1H-indol-1-yl]methyl}-2-thienyl)carbonyl]pyrimidin-4-yl}amino)cyclopentyl]methyl sulfamate]		10 to 100			85	
Cc1cnn2c1[C@H](c1csc(C(=O)c3cncnc3N[C@@H]3C[C@H](COS(N)(=O)=O)[C@@H](O)C3)c1)OCC2 (mixture of isomers) [I-333, [(1R,2S,4R)-2-hydroxy-4-{[5-({4-[(4S)-3-methyl-6,7-dihydro-4H-pyrazolo[5,1-c][1,4]oxazin-4-yl]-2-thienyl}carbonyl)pyrimidin-4-yl]amino}cyclopentyl]methyl sulfamate and [(1R,2S,4R)-2-hydroxy-4-{[5-({4-[(4R)-3-methyl-6,7-dihydro-4H-pyrazolo[5,1-c][1,4]oxazin-4-yl]-2-thienyl}carbonyl)pyrimidin-4-yl]amino}cyclopentyl]methyl sulfamate]			15	100 to 1000		
NS(=O)(=O)OC[C@H]1C[C@@H](Nc2ncncc2C(=O)c2cc([C@@H]3CCc4ccc(Cl)cc43)cs2)C[C@@H]1O (single isomer, unassigned) [I-349b, [(1R,2S,4R)-4-{[5-({4-[(1R)-6-chloro-2,3-dihydro-1H-inden-1-yl]-2-thienyl}carbonyl)pyrimidin-4-yl]amino}-2-hydroxycyclopentyl]methyl sulfamate or [(1R,2S,4R)-4-{[5-({4-[(1S)-6-chloro-2,3-dihydro-1H-inden-1-yl]-2-thienyl}carbonyl)pyrimidin-4-yl]amino}-2-hydroxycyclopentyl]methyl sulfamate]			58	10 to 100		
Cc1nc2n(c1C)CCO[C@@H]2c1cc(C(=O)c2cncnc2N[C@@H]2C[C@H](COS(N)(=O)=O)[C@@H](O)C2)sc1C (single isomer, unassigned) [I-356b, [(1R,2S,4R)-4-{[5-({4-[(8R)-2,3-dimethyl-5,6-dihydro-8H-imidazo[2,1-c][1,4]oxazin-8-yl]-5-methyl-2-thienyl}carbonyl)pyrimidin-4-yl]amino}-2-hydroxycyclopentyl]methyl sulfamate or [(1R,2S,4R)-4-{[5-({4-[(8S)-2,3-dimethyl-5,6-dihydro-8H-imidazo[2,1-c][1,4]oxazin-8-yl]-5-methyl-2-thienyl}carbonyl)pyrimidin-4-yl]amino}-2-hydroxycyclopentyl]methyl sulfamate]			99	< 10		
COc1ccc2c(n1)[C@H](c1cc(C(=O)c3cncnc3N[C@@H]3C[C@H](COS(N)(=O)=O)[C@@H](O)C3)sc1C)OCC2 (single isomer, unassigned) [I-339b, [(1R,2S,4R)-2-hydroxy-4-{[5-({4-[(8S)-2-methoxy-5,8-dihydro-6H-pyrano[3,4-b]pyridin-8-yl]-5-methyl-2-thienyl}carbonyl)pyrimidin-4-yl]amino}cyclopentyl]methyl sulfamate or [(1R,2S,4R)-2-hydroxy-4-{[5-({4-[(8R)-2-methoxy-5,8-dihydro-6H-pyrano[3,4-b]pyridin-8-yl]-5-methyl-2-thienyl}carbonyl)pyrimidin-4-yl]amino}cyclopentyl]methyl sulfamate]			94	< 10		
Cc1sc(C(=O)c2cncnc2NC2CC(O)C(COS(N)(=O)=O)C2)cc1C(N)c1cccc(Cl)c1 (mixture of isomers) [I-6, [(1R,2S,4R)-4-{[5-({4-[(R)-amino(3-chlorophenyl)methyl]-5-methyl-2-thienyl}carbonyl)pyrimidin-4-yl]amino}-2-hydroxycyclopentyl]methyl sulfamate and [(1R,2S,4R)-4-{[5-({4-[(S)-amino(3-chlorophenyl)methyl]-5-methyl-2-thienyl}carbonyl)pyrimidin-4-yl]amino}-2-hydroxycyclopentyl]methyl sulfamate]	98	< 10				
NS(=O)(=O)OC[C@H]1C[C@@H](Nc2ncncc2C(=O)c2cc(CC3=CCSCC3)cs2)C[C@@H]1O [I-173, {(1R,2S,4R)-4-[(5-{[4-(3,6-dihydro-2H-thiopyran-4-ylmethyl)-2-thienyl]carbonyl}pyrimidin-4-yl)amino]-2-hydroxycyclopentyl}methyl sulfamate]		10 to 100			86	
Cc1sc(C(=O)c2cncnc2N[C@@H]2C[C@H](COS(N)(=O)=O)[C@@H](O)C2)cc1Cn1cc(Br)cc1C#N [I-148, [(1R,2S,4R)-4-{[5-({4-[(4-bromo-2-cyano-1H-pyrrol-1-yl)methyl]-5-methyl-2-thienyl}carbonyl)pyrimidin-4-yl]amino}-2-hydroxycyclopentyl]methyl sulfamate]		< 10			91	
NS(=O)(=O)OC[C@H]1C[C@@H](Nc2ncncc2C(=O)c2cc(Cc3cccc(Br)n3)c(Cl)s2)C[C@@H]1O [I-46, [(1R,2S,4R)-4-{[5-({4-[(6-bromopyridin-2-yl)methyl]-5-chloro-2-thienyl}carbonyl)pyrimidin-4-yl]amino}-2-hydroxycyclopentyl]methyl sulfamate]					98	
Cc1sc(C(=O)c2cncnc2N[C@@H]2C[C@H](COS(N)(=O)=O)[C@@H](OC(=O)CN)C2)cc1[C@@H]1OCCc2ccc(Cl)cc21 [I-330, (1S,2R,4R)-4-{[5-({4-[(1R)-7-chloro-3,4-dihydro-1H-isochromen-1-yl]-5-methyl-2-thienyl}carbonyl)pyrimidin-4-yl]amino}-2-[(sulfamoyloxy)methyl]cyclopentyl aminoacetate]				100 to 1000		inhibition at 0.111 µM [1]: 34%
